From patent US20170057954A1, “SUBSTITUTED IMIDAZO[1,2-A]PYRIDINECARBOXAMIDES AND THEIR USE” (Bayer Pharma Aktiengesellschaft, priority 2014, published 2017) come the findings set out here.

This assay deals with recombinant guanylate cyclase reporter cell line. The assay is described as follows: Effect on a recombinant guanylate cyclase reporter cell line. The class given is cell-based. As to conditions: in some cases mean values for individual determinations, read-out: MEC (minimum effective concentration). On the procedure: B-2. Effect on a Recombinant Guanylate Cyclase Reporter Cell Line
The cellular activity of the compounds according to the invention is determined using a recombinant guanylate cyclase reporter cell line, as described in F. Wunder et al., Anal. Biochem. 339, 104-112 (2005).
Representative MEC values (MEC=minimum effective concentration) for the compounds of the invention are shown in the table below (in some cases as mean values for individual determinations): […]
`COCC(=O)NNC(=O)c1c(C)nc2c(OCc3c(F)cccc3F)cc(C)cn12` [Example 32]: the minimal effective concentration worked out at 1 µM.
Then `O=C(NN1CCOCC1)c1cnc2c(OCc3c(F)cccc3F)cccn12` [Example 23], with 10 µM.
Under `COc1ccc(F)c(COc2cc(C)cn3c(C(=O)NN4CCOCC4)c(C)nc23)c1F` [Example 25] stands 10 µM; under `COCCC(=O)NNC(=O)c1c(C)nc2c(OCc3c(F)cccc3F)cc(C)cn12` [Example 33], 0.3 µM.
Regarding `Cc1cc(OCc2c(F)cccc2F)c2nc(C)c(C(=O)NNc3nnc(C(C)(C)C)s3)n2c1` [Example 35], the minimal effective concentration came to 3 µM.
For the molecule `Cc1cc(OCc2c(F)cccc2F)c2nc(C)c(C(=O)NNC3CS(=O)(=O)CC3C)n2c1` (stereo not drawn) [Example 72], the minimal effective concentration came out at 3 µM.
Then `Cc1cc(OCc2c(F)cccc2F)c2nc(C)c(C(=O)NNc3cccc(Br)c3)n2c1` [Example 54], with 0.3 µM.
Then `Cc1cc(OCc2c(F)cccc2F)c2nc(C)c(C(=O)NOCC(N)C(C)C)n2c1` (stereo not drawn) [Example 9], with 1 µM; and `Cc1cc(OCc2c(F)cccc2F)c2nc(C)c(C(=O)NOCCN(C)C)n2c1` [Example 2], with 1 µM; and `Cc1cc(OCc2c(F)cccc2F)c2nc(C)c(C(=O)NNc3ccc(OC(F)(F)F)cc3)n2c1` [Example 48], with 1 µM.
Then `Cc1cc(OCc2c(F)cccc2F)c2nc(C)c(C(=O)NOCCN)n2c1` [Example 7, N-(2-Aminoethoxy)-8-[(2,6-difluorobenzyl)oxy]-2,6-dimethylimidazo[1,2-a]pyridine-3-carboxamide hydrate], with 1 µM; and `Cc1cc(OCc2c(F)cccc2F)c2nc(C)c(C(=O)NNCc3csc(C)n3)n2c1` [Example 65], with 1 µM.
In the case of `Cc1cc(OCc2c(F)cccc2F)c2nc(C)c(C(=O)NOCc3ccccc3C#N)n2c1` [Example 59], the minimal effective concentration was found to be 1 µM.
Under `Cc1cc(OCc2c(F)cccc2F)c2nc(C)c(C(=O)NN(C)c3ccccc3)n2c1` [Example 51] stands 0.1 µM; under `Cc1cc(OCc2c(F)cccc2F)c2nc(C)c(C(=O)NNC3CCCC3)n2c1` [Example 64], 3 µM; under `Cc1cc(OCc2c(F)cccc2F)c2nc(C)c(C(=O)NNC3CCCCC3)n2c1` [Example 74], 3 µM.
Then `Cc1cc(OCc2c(F)cccc2F)c2nc(C)c(C(=O)NNc3ccc4ccccc4c3)n2c1` [Example 34], with 1 µM; and `Cc1cc(OCc2c(F)cccc2F)c2nc(C)c(C(=O)NOCC(=O)NCc3ccc(Cl)cc3)n2c1` [Example 4], with 3 µM.
